Where “and” joins values, the source holds several entries; their conditions need not be identical. Equal values may be shown once.
Settings: Liquid, Closed cell (Static) method

FC(F)CC(F)(F)F [1,1,1,3,3-pentafluoropropane]
Settings | vapor or sublimation pressure
255.22 K | 21.93 kPa
259.37 K | 27.28 kPa and 27.27 kPa
263.27 K | 33.25 kPa and 33.24 kPa
267.31 K | 40.47 kPa
271.03 K | 48.26 kPa
275.31 K | 58.66 kPa
279.32 K | 69.99 kPa and 69.98 kPa
279.33 K | 69.98 kPa and 69.99 kPa
283.2 K | 82.37 kPa and 82.36 kPa
285.08 K | 89.02 kPa and 89.05 kPa
288.91 K | 103.68 kPa and 103.67 kPa
291.16 K | 113.41 kPa and 113.43 kPa
291.17 K | 113.42 kPa
292.62 K | 119.97 kPa and 120.01 kPa
295.55 K | 134.37 kPa and 134.41 kPa
298.31 K | 149.04 kPa and 149.05 kPa
300.16 K | 159.38 kPa
313.13 K | 250.2 kPa and 250.26 kPa and 250.34 kPa
317.43 K | 287.67 kPa and 287.72 kPa and 287.84 kPa
321.77 K | 329.9 kPa and 329.87 kPa
327.34 K | 390.52 kPa and 390.61 kPa
333.55 K | 467.79 kPa
344.96 K | 639.43 kPa
347.8 K | 688.83 kPa and 688.9 kPa
351.54 K | 757.91 kPa and 757.93 kPa and 757.86 kPa
354.13 K | 808.71 kPa
354.15 K | 809.38 kPa
357.7 K | 883.2 kPa
362.21 K | 984.31 kPa and 984.35 kPa
364.47 K | 1038.2 kPa
367.1 K | 1103.6 kPa
367.11 K | 1103.6 kPa
371.11 K | 1209.3 kPa
371.12 K | 1209.3 kPa
374.81 K | 1313.1 kPa
374.95 K | 1317.3 kPa
377.03 K | 1378.9 kPa
381.38 K | 1514.3 kPa
384.5 K | 1617.4 kPa
388.32 K | 1751.2 kPa
393.64 K | 1950.8 kPa

FC(C(F)(F)F)C(F)(F)F [1,1,1,2,3,3,3-heptafluoropropane]
Settings | vapor or sublimation pressure
253.31 K | 86.81 kPa
253.32 K | 86.83 kPa
253.33 K | 86.86 kPa
255.21 K | 94.46 kPa
257.26 K | 103.23 kPa and 103.26 kPa
259.59 K | 114.05 kPa
261.28 K | 122.37 kPa
263.26 K | 132.72 kPa
265.17 K | 143.42 kPa
267.15 K | 155.12 kPa and 155.14 kPa
269.19 K | 167.93 kPa
271.14 K | 181.01 kPa
273.13 K | 195.16 kPa
273.14 K | 195.21 kPa
273.16 K | 195.29 kPa
275.15 K | 210.31 kPa
275.17 K | 210.44 kPa
275.18 K | 210.49 kPa
276.99 K | 224.91 kPa
279.19 K | 243.27 kPa
281.14 K | 260.66 kPa
283.18 K | 279.74 kPa
285.18 K | 299.49 kPa
285.19 K | 299.62 kPa
287.14 K | 319.89 kPa
289.07 K | 340.97 kPa
289.1 K | 341.37 kPa
291.06 K | 363.71 kPa
291.16 K | 365.01 kPa
293.04 K | 387.68 kPa
293.15 K | 388.98 kPa
293.23 K | 390.05 kPa
295.22 K | 415.24 kPa
295.32 K | 416.61 kPa
297.21 K | 441.61 kPa
297.22 K | 441.76 kPa
299.07 K | 467.46 kPa
299.16 K | 468.9 kPa
301.54 K | 503.72 kPa
303.66 K | 536.19 kPa
305.19 K | 560.59 kPa
307.19 K | 593.83 kPa
309.51 K | 634.38 kPa
311.16 K | 664.23 kPa
313.13 K | 701.36 kPa
315.11 K | 740.37 kPa
317.15 K | 781.99 kPa
317.5 K | 789.45 kPa
319.51 K | 832.46 kPa
321.16 K | 869.25 kPa
323.13 K | 914.73 kPa
323.17 K | 915.9 kPa
325.11 K | 962.18 kPa
329.17 K | 1065.4 kPa
333.69 K | 1190.1 kPa
339.17 K | 1355.8 kPa
344.87 K | 1545.3 kPa
349.82 K | 1725.8 kPa
353.22 K | 1859.3 kPa
357.13 K | 2022.6 kPa
361.12 K | 2201.1 kPa
364.88 K | 2380.9 kPa
369.16 K | 2600 kPa
373.22 K | 2825.1 kPa and 2825.2 kPa and 2825.3 kPa

Source: the NIST ThermoML archive (doi:10.1021/je0342769)
